From patent publication US8642623B2, “Vanilloid receptor ligand compounds, pharmaceutical compositions containing them, a method of producing them and the use thereof to treat pain and various other conditions” (Gruenenthal GmbH, priority 2007, dated 2014)

Columns and labels:
Assay type in all cases: cell-based
[1] = molecular target: T1, vanilloid receptor 1 (VR1/TRPV1) of the rat species (Rattus norvegicus, UniProt O35433); assay: FLIPR Ca2+ influx assay on rat dorsal root ganglia cells, capsaicin stimulus (Pharmacological method I); settings: capsaicin 100 nM stimulus, Ki from IC50 by Cheng-Prusoff
T1 construct: The spinal column is removed from decapitated rats; from tissue; host or cells: primary cells from rat dorsal root ganglia (DRG)
T1 sequence (O35433 whole entry): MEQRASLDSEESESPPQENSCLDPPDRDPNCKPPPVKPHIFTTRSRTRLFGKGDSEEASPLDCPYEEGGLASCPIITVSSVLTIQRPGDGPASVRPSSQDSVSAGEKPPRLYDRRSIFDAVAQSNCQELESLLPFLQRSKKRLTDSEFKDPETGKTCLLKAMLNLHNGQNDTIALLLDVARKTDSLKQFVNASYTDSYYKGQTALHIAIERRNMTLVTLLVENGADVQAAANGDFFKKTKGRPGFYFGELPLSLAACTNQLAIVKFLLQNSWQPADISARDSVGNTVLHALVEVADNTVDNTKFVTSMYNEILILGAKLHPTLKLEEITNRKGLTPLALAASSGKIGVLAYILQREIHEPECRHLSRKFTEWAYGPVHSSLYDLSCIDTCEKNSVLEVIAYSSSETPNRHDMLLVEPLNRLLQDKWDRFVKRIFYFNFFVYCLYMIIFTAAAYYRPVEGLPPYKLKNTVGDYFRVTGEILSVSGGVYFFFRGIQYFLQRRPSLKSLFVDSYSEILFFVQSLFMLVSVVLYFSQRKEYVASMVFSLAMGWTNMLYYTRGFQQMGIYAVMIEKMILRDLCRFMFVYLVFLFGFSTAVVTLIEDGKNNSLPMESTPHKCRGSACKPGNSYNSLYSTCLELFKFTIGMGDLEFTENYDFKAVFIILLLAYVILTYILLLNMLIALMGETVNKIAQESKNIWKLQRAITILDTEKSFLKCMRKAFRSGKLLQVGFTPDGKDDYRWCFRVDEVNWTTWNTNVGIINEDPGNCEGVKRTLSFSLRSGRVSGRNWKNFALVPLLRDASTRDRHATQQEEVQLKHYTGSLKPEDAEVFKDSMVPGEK
Method: (§1) The agonistic or antagonistic action of the substances to be investigated on the vanilloid receptor 1 (VR1/TRPV1) of the rat species may be determined with the following assay. According to this assay, the influx of Ca^2+ through the receptor channel is quantified with the assistance of a Ca^2+-sensitive dye (type Fluo-4, Molecular Probes Europe BV, Leiden, Netherlands) in a Fluorescent Imaging Plate Reader (FLIPR, Molecular Devices, Sunnyvale, USA).
Complete medium: 50 mL HAMS F12 Nutrient Mixture (Gibco Invitrogen GmbH, Karlsruhe, Germany) with 10 vol. % FCS (foetal calf serum, Gibco Invitrogen GmbH, Karlsruhe, Germany, heat-inactivated);
Cell culture plate: poly-D-lysine-coated, black 96-hole plates with clear base (96 well black/clear plate, BD Biosciences, Heidelberg, Germany) are additionally coated with laminin (Gibco Invitrogen GmbH, Karlsruhe, Germany), by diluting laminin to a concentration of 100 μg/mL with PBS (Ca—Mg-free PBS, Gibco Invitrogen GmbH, Karlsruhe, Germany). Aliquots with a concentration of 100 μg/mL of laminin are taken and stored at −20° C. The aliquots are diluted with PBS in the ratio of 1:10 to 10 μg/mL of laminin and 50 μL of the solution is pipetted into each well of the cell culture plate. The cell culture plates are incubated for at least two hours at 37° C., the supernatant solution is aspirated and the wells are each washed twice with PBS. The coated cell culture plates are stored with supernatant PBS and this is only removed directly prior to introduction of the cells.
The spinal column is removed from decapitated rats and this is placed directly in cold HBSS buffer (Hank's buffered saline solution, Gibco Invitrogen GmbH, Karlsruhe, Germany), i.e. located in an ice bath, combined with 1 vol. % (percent by volume) of an AA solution (antibiotic/antimycotic solution, PAA, Pasching, Austria). The spinal column is severed lengthwise and removed from the spinal canal together with fasciae. The dorsal root ganglia (DRGs) are then removed and in turn stored in cold HBSS buffer combined with 1 vol. % of an AA solution. The DRGs, from which blood residues and spinal nerves have been completely removed, are in each case transferred into 500 μL cold collagenase type 2 (PAA, Pasching, Austria) and incubated for 35 minutes at 37° C. After the addition of 2.5 vol. % trypsin (PAA, Pasching, Austria) incubation at 37° C. is continued for a further 10 minutes. After complete incubation, the enzyme solution is carefully pipetted off and the remaining DRGs are combined in each case with 500 μL of complete medium.
The DRGs are in each case repeatedly suspended, drawn through cannulas no. 1, no. 12 and no. 16 by means of a syringe and transferred into 50 mL Falcon microtubes, these being filled to 15 mL with complete medium. The content of each Falcon microtube is in each case filtered through a 70 μm Falcon filter insert and centrifuged for 10 minutes at 1200 revolutions and room temperature. The resultant pellet is in each case redissolved in 250 μL of complete medium and the cell count is determined.
The number of cells in the suspension is adjusted to 3×10^5 per mL and a 150 μL portion of this suspension is in each case placed in a well of the cell culture plates which have been coated as described above. The plates are left to stand in the incubator for two to three days at 37° C., 5 vol. % CO2 and 95% relative atmospheric humidity.
The cells are then loaded with 2 μM Fluo-4 and 0.01 vol. % Pluronic F127 (Molecular Probes Europe BV, Leiden, Netherlands) in HBSS buffer (Hank's buffered saline solution, Gibco Invitrogen GmbH, Karlsruhe, Germany) for 30 min at 37° C., washed 3×with HBSS buffer and, after a further 15 minutes' incubation at room temperature, used for Ca^2+ measurement in the FLIPR assay. Ca^2+-dependent fluorescence is here measured before and after the addition of substances (λex=488 nm, λem=540 nm). […]

[2] = molecular target: T2, vanilloid receptor (VR1) (Homo sapiens, UniProt Q8NER1); assay: FLIPR Ca2+ influx assay with CHO K1 cells transfected with the human VR1 gene, capsaicin stimulus (Pharmacological method II); settings: for Ki / Ki (human) Capsaicin: capsaicin 100 nM stimulus, Ki from IC50 by Cheng-Prusoff
T2 construct: expressed in transfected cells; host or cells: CHO K1 cells (ECACC), stably transfected
T2 sequence (Q8NER1 whole entry): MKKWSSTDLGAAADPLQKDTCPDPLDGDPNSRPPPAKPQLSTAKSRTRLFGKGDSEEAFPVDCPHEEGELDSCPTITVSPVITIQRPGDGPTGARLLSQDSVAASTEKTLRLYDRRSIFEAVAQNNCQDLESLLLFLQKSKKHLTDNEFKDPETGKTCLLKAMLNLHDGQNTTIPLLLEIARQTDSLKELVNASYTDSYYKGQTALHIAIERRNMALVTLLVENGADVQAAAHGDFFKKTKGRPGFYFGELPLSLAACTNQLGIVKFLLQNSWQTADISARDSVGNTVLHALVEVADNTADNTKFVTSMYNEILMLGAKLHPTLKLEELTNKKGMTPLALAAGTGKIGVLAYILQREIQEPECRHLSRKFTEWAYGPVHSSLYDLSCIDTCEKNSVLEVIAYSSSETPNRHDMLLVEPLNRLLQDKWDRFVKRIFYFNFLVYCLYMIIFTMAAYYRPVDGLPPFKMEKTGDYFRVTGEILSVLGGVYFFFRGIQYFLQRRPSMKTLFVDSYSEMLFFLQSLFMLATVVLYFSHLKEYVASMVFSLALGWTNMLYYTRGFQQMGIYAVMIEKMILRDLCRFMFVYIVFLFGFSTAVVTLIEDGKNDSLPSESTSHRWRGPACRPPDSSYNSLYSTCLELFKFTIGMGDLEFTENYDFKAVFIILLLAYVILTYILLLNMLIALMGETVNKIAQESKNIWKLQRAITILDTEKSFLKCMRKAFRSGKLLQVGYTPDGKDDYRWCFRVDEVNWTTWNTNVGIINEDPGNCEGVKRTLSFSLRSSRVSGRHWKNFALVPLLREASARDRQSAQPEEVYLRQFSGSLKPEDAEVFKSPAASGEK
Method: In addition, compounds according to the invention of the general formulae I, Ia, Ib, I′, I″, I′″ may be preferred which, in a FLIPR assay with CHO K1 cells which have been transfected with the human gene VR1, in a concentration of less than 2000 nM, preferably of less than 1000 nM, particularly preferably of less then 300 nM, very particularly preferably of less than 100 nM, still more preferably of less than 75 nM, further preferably of less than 50 nM, most preferably of less than 10 nM, bring about 50% displacement of capsaicin which is present in a concentration of 100 nM.
In this FLIPR assay, the influx of Ca^2+ is quantified with the assistance of a Ca^2+-sensitive dye (type Fluo-4, Molecular Probes Europe BV, Leiden, Netherlands) in a Fluorescent Imaging Plate Reader (FLIPR, Molecular Devices, Sunnyvale, USA) as described below.
as §1, with “(VR1)” for “1 (VR1/TRPV1) of the rat species”, “may also” for “may”, “the” for “the receptor”
Chinese hamster ovary cells (CHO K1 cells, European Collection of Cell Cultures (ECACC), Great Britain) are stably transfected with the VR1 gene. For functional investigations, these cells are plated out onto poly-D-lysine-coated, black 96-hole plates with a clear base (BD Biosciences, Heidelberg, Germany) at a density of 25,000 cells/hole. The cells are incubated overnight at 37° C. and 5% CO2 in a culture medium (Ham's Nutrient Mixture F12, 10 vol. % FCS (foetal calf serum), 18 μg/mL L-proline). On the following day, the cells are incubated with Fluo-4 (Fluo-4 2 μM, Pluronic F127 0.01 vol. %, Molecular Probes in HBSS (Hank's buffered saline solution), Gibco Invitrogen GmbH, Karlsruhe, Germany) for 30 minutes at 37° C. The plates are then washed 3 times with HBSS buffer and, after a further 15 minutes' incubation at room temperature, used for Ca^2+ measurement in the FLIPR. Ca^2+-dependent fluorescence is here measured before and after the addition of the substances to be investigated (wavelength λex=488 nm, λem=540 nm). Quantification proceeds by measuring the highest fluorescence intensity (FC, fluorescence counts) over time.
The FLIPR protocol consists of 2 additions of substance. The substances to be tested (10 μM) are firstly pipetted onto the cells and Ca^2+ influx is compared with the control (capsaicin 10 μM) (% activation relative to the Ca^2+ signal after addition of 10 μM of capsaicin). After 5 minutes' incubation, 100 nM of capsaicin are added and the influx of Ca^2+ is likewise determined.
The percentage inhibition in comparison with the maximum achievable inhibition with 10 μM capsaicin is calculated.
On the basis of the percentage displacement by different concentrations of the compounds to be tested of the general formula I, IC50 inhibition concentrations which bring about 50% displacement of capsaicin were calculated. Ki values for the test substances were obtained by conversion using the Cheng-Prusoff equation (Cheng, Prusoff; Biochem. Pharmacol. 22, 3099-3108, 1973).

[3] = molecular target: vanilloid receptor 1 (VR1/TRPV1 receptor) (Homo sapiens, UniProt Q8NER1); assay: Human VR1/TRPV1 receptor inhibition after pH stimulus; settings: for inhibition at 5 µM: compound 5 μM; for inhibition at 10 µM: compound 10 μM
Sequence of vanilloid receptor 1 (VR1/TRPV1 receptor) (Q8NER1 whole entry): as above

SMILES | Ki [1] [µM] | Ki [2] [µM] | IC50 [3] [µM] | inhibition at 5 µM [3] [%] | inhibition at 10 µM [3] [%] | Ki (human) Capsaicin [2] | inhibition at 0.1 µM ([2]; CHO-K1, capsaicin stimulus, compound 0.1 μM) [%] | inhibition at 1 µM ([2]; CHO-K1, capsaicin stimulus, compound 1 μM) [%] | inhibition at 5 µM ([2]; CHO-K1, capsaicin stimulus, compound 5 μM) [%] | IC50 (human) after pH stimulus [3]
CCC(=O)N(c1ccccc1)C1CCN(c2nc(C(F)(F)F)ccc2CNC(=O)C(C)c2ccc(N(C(=O)CC)S(C)(=O)=O)c(F)c2)CC1 (stereo not shown) [Example 1, N-(2-fluoro-4-(1-oxo-1-((2-(4-(N-phenylpropionamido)piperidin-1-yl)-6-(trifluoromethyl)pyridin-3-yl)methylamino)propan-2-yl)phenyl)-N-(methylsulfonyl)propionamide] | 0.0195 | 0.0691 | 0.525 | – | – | – | – | – | – | –
CC(=O)N(c1ccc(C(C)C(=O)NCc2ccc(C(F)(F)F)nc2N2CCC(C)CC2)cc1F)S(C)(=O)=O (stereo not shown) [Example 2, 2-(3-fluoro-4-(N-(methylsulfonyl)acetamido)phenyl)-N-((2-(4-methylpiperidin-1-yl)-6-(trifluoromethyl)pyridin-3-yl)methyl)propanamide] | 0.0022 | 0.0119 | 0.947 | – | – | – | – | – | – | –
CC1CCN(c2nc(C(F)(F)F)ccc2CNC(=O)C(C)c2ccc(N(C)S(C)(=O)=O)c(F)c2)CC1 (stereo not shown) [Example 3, 2-(3-fluoro-4-(N-methylmethylsulfonamido)phenyl)-N-((2-(4-methylpiperidin-1-yl)-6-(trifluoromethyl)pyridin-3-yl)methyl)propanamide] | 0.02 | 0.0555 | – | 8 | 16 | – | – | – | – | –
CC(C(=O)NCc1ccc(C(C)(C)C)cc1)c1ccc(N(C)S(C)(=O)=O)c(F)c1 (stereo not shown) [Example 4, N-(4-tert.-butylbenzyl)-2-(3-fluoro-4-(N-methylmethylsulfonamido)phenyl)propanamide] | 0.0504 | – | – | 0 | 22 | Ne | – | – | – | –
CCN(c1ccc([C@H](C)C(=O)NCc2ccc(C(C)(C)C)cc2)cc1F)S(C)(=O)=O [Example 6, (S)—N-(4-tert.-butylbenzyl)-2-(4-(N-ethylmethylsulfonamido)-3-fluorophenyl)propanamide] | 0.0668 | – | – | 0 | 21 | Ne | – | – | – | –
CC(C(=O)NCc1ccc(C(F)(F)F)nc1SC1CCCCC1)c1ccc(N(C)S(C)(=O)=O)c(F)c1 (stereo not shown) [Example 7, N-((2-(cyclohexylthio)-6-(trifluoromethyl)pyridin-3-yl)methyl)-2-(3-fluoro-4-(N-methylmethylsulfonamido)phenyl)propanamide] | 0.0308 | 0.0481 | – | 0 | 20 | – | – | – | – | –
CCN(c1ccc(C(C)C(=O)NCc2ccc(C(F)(F)F)nc2N2CCC(C)CC2)cc1F)S(C)(=O)=O (stereo not shown) [Example 9, 2-(4-(N-ethylmethylsulfonamido)-3-fluorophenyl)-N-((2-(4-methylpiperidin-1-yl)-6-(trifluoromethyl)pyridin-3-yl)methyl)propanamide] | 0.0638 | 0.0227 | – | 11 | 46 | – | – | – | – | –
CC1CCN(c2nc(C(C)(C)C)ccc2CNC(=O)C(C)c2ccc(N(C)S(C)(=O)=O)c(F)c2)CC1 (stereo not shown) [Example 10, N-((6-tert.-butyl-2-(4-methylpiperidin-1-yl)pyridin-3-yl)methyl)-2-(3-fluoro-4-(N-methylmethylsulfonamido)phenyl)propanamide] | 0.0028 | 0.0277 | – | 0 | 11 | – | – | – | – | –
CC(C(=O)NCc1ccc(C(C)(C)C)nc1SC1CCCCC1)c1ccc(N(C)S(C)(=O)=O)c(F)c1 (stereo not shown) [Example 11, N-((6-tert.-butyl-2-(cyclohexylthio)pyridin-3-yl)methyl)-2-(3-fluoro-4-(N-methylmethylsulfonamido)phenyl)propanamide] | 0.0168 | – | – | – | – | – | 0 | 33 | 56 | ne
CC1CCN(c2cc(C(F)(F)F)ccc2CNC(=O)C(C)c2ccc(N(C)S(C)(=O)=O)c(F)c2)CC1 (stereo not shown) [Example 12, 2-(3-fluoro-4-(N-methylmethylsulfonamido)phenyl)-N-(2-(4-methylpiperidin-1-yl)-4-(trifluoromethyl)benzyl)propanamide] | 0.005 | 0.0078 | – | 0 | 43 | – | – | – | – | –
CC(C(=O)NCc1ccc(C(F)(F)F)cc1SC1CCCCC1)c1ccc(N(C)S(C)(=O)=O)c(F)c1 (stereo not shown) [Example 13, N-(2-(cyclohexylthio)-4-(trifluoromethyl)benzyl)-2-(3-fluoro-4-(N-methylmethylsulfonamido)phenyl)propanamide] | 0.0052 | 0.0331 | – | – | – | – | – | – | – | ne
CC1CCN(c2cc(C(C)(C)C)ccc2CNC(=O)C(C)c2ccc(N(C)S(C)(=O)=O)c(F)c2)CC1 (stereo not shown) [Example 14, N-(4-tert.-butyl-2-(4-methylpiperidin-1-yl)benzyl)-2-(3-fluoro-4-(N-methylmethylsulfonamido)phenyl)propanamide] | 0.003 | 0.0131 | – | 9 | 43 | – | – | – | – | –
